In patent US9162992B2, “Compounds and compositions for treatment of breathing control disorders or diseases” (GALLEON PHARMACEUTICALS, INC., priority 2010, dated 2015):
Values after ≈ are worked out from the molar mass of the structure shown. Values joined by “and” are separate entries in the source; they are usually repeats but may differ in a detail not shown here. Equal values may be shown once. Read-outs that look alike come from different tables or passages of the source.

Assays:
[1] = Solubility as a function of pH (100 mM citric acid, room temperature); assay type: physicochemical; conditions: for solubility / solubility thermodynamic: thermodynamic from solid; for solubility thermodynamic: 100 mM citric acid buffer, read-out: (XXXVI) concentration; for (XXXVI) concentration: not saturated
Protocol: A solution of (XXXVI) of concentration ˜[…] in 100 mM citric acid at pH 2.5 was prepared. About 150 μL aliquots of this solution were transferred into 6 separate glass HPLC vials. Each aliquot was titrated with 6N sodium hydroxide to different pH values in the range 3-5.5 (Table 12A). All the samples, including the solution at pH 2.5, were shaken overnight at room temperature using a gyratory shaker. After shaking, the samples were evaluated visually for the presence of precipitate and were then spin filtered through 0.45 μm syringe tip filters (4 mm diameter) at 3,000 rpm for 20 min. The final pH values of the filtrates were measured. The filtrates were then diluted appropriately and analyzed for (XXXV) concentration using the HPLC assay.
This equation is a simplified representation of solubility equilibrium for weak bases that assumes that total solubility is much larger than the solubility of the free base in the pH range of interest: log S=log S0+log(1+10^pKa-pH) Equation 1 where, ‘S’ is total solubility; ‘S0’ is the solubility of the free base.

[2] = Solubility in solvents and IV solutions; assay type: physicochemical
Protocol: The solubility of (XXXXVI) and XXXV was evaluated in various solvents and IV solutions. Due to limits on the API supply at the time the study was conducted, most of the solvent systems were evaluated to a level of only 100 mg/mL even if the solution was not saturated at this level. Only in water was an attempt made to reach saturation solubility, regardless of how high that solubility might be. Solubility of the salt/free base in each solvent was evaluated in duplicate.
For solubility in water, drug was added with intermittent shaking to ensure that excess undissolved drug is present indicating saturation […]. The filtrates were diluted appropriately and analyzed for (XXXV) concentration by HPLC.

[3] = system: healthy subjects; experiment: Ventilation, safety and pharmacokinetics in human volunteers, single-rising dose IV infusion; assay type: in vivo
Protocol: A randomized, double-blind, placebo-controlled nine-period single-rising dose study in three alternating cohorts of healthy subjects was conducted at a single center in conformance with Good Clinical Practice. Compound (XXXVI) was synthesized according to Good Manufacturing Practice. Three (3) Cohorts of ten subjects each were randomized to treatment in a ratio of 4:1 (8 treated, 2 placebo) in a rotating panel design. Subjects in the first cohort participated in dosing periods 1, 4, and 7, with the second cohort participating in dosing periods 2, 5, and 8, and third cohort participating in dosing period 3, 6, and 9. The subjects who received placebo in their first dosing period also received placebo in their second and third dosing periods. Similarly, drug-treated subjects received drug all three dosing periods. In the first Cohort, on the first dose only, 2 subjects were dosed on Day 1 with one subject receiving active drug and one subject receiving placebo. Following a review of available safety and tolerability data (excluding PK), the remainder of Cohort 1 was dosed the following day. Subjects were dosed as detailed in Table 11 with a minimum of 1-week washout between doses.
Subjects could be screened up to 28 days before the treatment period. On the evening before dosing, subjects were admitted to the clinical site and baseline evaluations were conducted. After an overnight fast, subjects received an intravenous infusion of Compound (XXXVI) or placebo then PD, PK, and safety evaluations were conducted during the next 24 hours. Cohort 1 was enrolled to the lowest dose group and randomized to Compound (XXXVI) or placebo. Safety and tolerability evaluations for each dose included all safety assessments obtained through approximately 24 hours post-dose.
Pharmacodynamic endpoints were assessed by two independent systems consisting of Dräger Infinity patient monitoring system and a portable NOX-T3 respiratory monitoring system. The Dräger system is an inpatient intensive care/postoperative monitoring system used to monitor minute ventilation, respiratory rate (RR), tidal volume (VT) via a pneumotachometer (Capnostat sensor), transcutaneous oxygen hemoglobin saturation (SpO2), and end tidal carbon dioxide (ETCO2) (Capnostat sensor). NOX/T3 is a portable monitoring device used for home diagnostic sleep apnea assessments. In this study, NOX device monitored RR, VT via respiratory inductance plethysmography (RIP), SpO2 (Nonin), actigraphy, nasal air flow, and audio recording of the dosing session. In addition to monitoring pharmacodynamic effects, the Dräger system was also used to monitor subject real-time safety. Standard safety assessments were measured repeatedly throughout the dosing session, and consisted of vital signs (BP, HR, RR, temperature (oral)), Ramsay Sedation Scale (RSS), and pulmonary function testing.
Test Product, Dose, Mode of Administration, Batch and Lot No(s): Compound (XXXVI) was prepared as a sterile product for injection ready for dilution in normal saline and administration by infusion. Doses were based on the subject's weight on a milligram per kilogram basis and were administered over a 1-, 2-, 3- or 4-hour infusion as described in Table 11. Compound (XXXVI) (Batch No. 04110511) was provided by the Sponsor as a 50 mL fill of 10 mg/mL solution (GAL-021 freebase) in 20 mM citrate for IV Injection; Saline was sourced by the Investigator from Baxter, Lot 11F03E7L.
Thirty (30) subjects received single IV infusions over 1, 2, 3, or 4 hours on the first day of each of 3 periods for a total of 3 dosing days per subject. Per protocol, there was to be a minimum one week washout between doses of Compound (XXXVI) for all subjects. Actual washout periods ranged from 9 to 20 days overall.
Pharmacodynamic (PD) evaluations included tidal volume, respiratory rate, minute ventilation, end-tidal CO2, and transcutaneous hemoglobin oxygen saturation (SpO2). […]

[4] = IV infusion 0.102 to 2.16 mg/kg, 1 to 4 hours

Structure (SMILES): CCCNc1nc(NCCC)nc(N(C)OC)n1 [XXXV, N-(4,6-Bis-n-propylamino-[1,3,5]triazin-2-yl)-N,O-dimethyl-hydroxylamine]
- solubility ([1]; aqueous buffer): 0.18 mg/mL (≈ 0.708 mM)
- solubility ([1]; pH 3.16, aqueous buffer): 50 mg/mL (≈ 197 mM)
- solubility ([1]; pH 3.46, aqueous buffer): 25 mg/mL (≈ 98.3 mM)
- pH dependence of solubility ([1]; pH 3.5): solubility was high at pH 3.5 or lower
- solubility ([1]; pH 3.86, aqueous buffer): 10 mg/mL (≈ 39.3 mM)
- solubility ([2]; organic solvent or mixture, thermodynamic from solid, solubility): > 90 mg/mL
- solubility ([2]; water, thermodynamic from solid, Solubility): ~0.21 mg/mL (≈ 0.826 mM)

Structure (SMILES): CCCNc1nc(NCCC)nc(N(C)OC)n1.O=S(=O)(O)O [XXXVI, N-(4,6-Bis-n-propylamino-[1,3,5]triazin-2-yl)-N,O-dimethyl-hydroxylamine hydrogen sulfate]
- increase in tidal volume ([3]; 0.016 mg/kg dose (so in the source)): < 10%
- minute ventilation ([3]; 0.016 mg/kg/min x 1 hour): stimulated minute ventilation
- safety and tolerability ([3]; 0.102-2.16 mg/kg IV, durations 1 to 4 hours): generally safe and well tolerated
- dose proportionality of concentration at 1 hour and AUC [3, 4]: dose proportional
- pharmacokinetic behaviour [3, 4]: well-behaved pharmacokinetically
- change in respiratory rate ([3]; all doses): < 10%
- increase in minute ventilation ([3]; highest infusion rate (0.016 mg/kg/min x 1 hour), first 2 hours after start of infusion): ~27%
- solubility thermodynamic ([1]; aqueous buffer, target pH 4.0, final pH 3.79): 20.8 mg/mL
- solubility thermodynamic ([1]; aqueous buffer, target pH 4.5, final pH 4.37): 3.46 mg/mL
- solubility thermodynamic ([1]; aqueous buffer, target pH 5.0, final pH 4.52): 2.73 mg/mL
- solubility thermodynamic ([1]; aqueous buffer, target pH 5.5, final pH 5.02): 0.99 mg/mL
- appearance afterwards Shaking ([1]; target pH 2.5): Clear solution
- (XXXVI) concentration ([1]; target pH 2.5, final pH 2.42): 104.1
- appearance afterwards Shaking ([1]; target pH 3.0): Clear solution
- (XXXVI) concentration ([1]; target pH 3.0, final pH 3.00): 99.8
- appearance afterwards Shaking ([1]; target pH 3.5): Clear solution
- (XXXVI) concentration ([1]; target pH 3.5, final pH 3.51): 101.6
- appearance afterwards Shaking ([1]; target pH 4.0): Precipitate
- appearance afterwards Shaking ([1]; target pH 4.5): Precipitate
- appearance afterwards Shaking ([1]; target pH 5.0): Precipitate
- appearance afterwards Shaking ([1]; target pH 5.5): Precipitate
- solubility ([2]; 0.9% NaCl, listed as (XXXV) hydrogen sulfate salt, hydrogen sulfate): >201.4 mg/mL
- solubility ([2]; 30% PEG-400, listed as (XXXV) hydrogen sulfate salt, hydrogen sulfate): >197.0 mg/mL and >198.4 mg/mL
- solubility ([2]; 30% Propylene Glycol, listed as (XXXV) hydrogen sulfate salt, hydrogen sulfate): >89.47 mg/mL
- solubility ([2]; 70% PEG-400, listed as (XXXV) hydrogen sulfate salt, hydrogen sulfate): >85.28 mg/mL and >91.43 mg/mL
- solubility ([2]; 70% Propylene Glycol, listed as (XXXV) hydrogen sulfate salt, hydrogen sulfate): >92.43 mg/mL
- solubility ([2]; Acetonitrile, listed as (XXXV) hydrogen sulfate salt, hydrogen sulfate): 68.5 mg/mL and 67.1 mg/mL
- solubility ([2]; Ethanol, listed as (XXXV) hydrogen sulfate salt, hydrogen sulfate): >212.2 mg/mL
- solubility ([2]; Methanol, listed as (XXXV) hydrogen sulfate salt, hydrogen sulfate): >98.52 mg/mL
- solubility ([2]; PEG-400 (100%), listed as (XXXV) hydrogen sulfate salt, hydrogen sulfate): 35.74 mg/mL
- solubility ([2]; Propylene Glycol (100%), listed as (XXXV) hydrogen sulfate salt, hydrogen sulfate): >94.65 mg/mL
- solubility ([2]; Water, listed as (XXXV) hydrogen sulfate salt, hydrogen sulfate): 414.5 mg/mL and 441.5 mg/mL
- solubility ([2]; aqueous with cosolvent or surfactant or cyclodextrin, thermodynamic from solid, 30% PEG-400, read-out: Solubility): ~198 mg/mL
- solubility ([2]; aqueous with cosolvent or surfactant or cyclodextrin, thermodynamic from solid, 30% Propylene Glycol, read-out: Solubility): > 93.2 mg/mL
- solubility ([2]; aqueous with cosolvent or surfactant or cyclodextrin, thermodynamic from solid, 30% and 70% PEG-400, read-out: solubility): ≥ 90 mg/mL
- solubility ([2]; aqueous with cosolvent or surfactant or cyclodextrin, thermodynamic from solid, 30%, 70% and 100% propylene glycol, read-out: solubility): ≥ 90 mg/mL
- solubility ([2]; aqueous with cosolvent or surfactant or cyclodextrin, thermodynamic from solid, 70% PEG-400, read-out: Solubility): ≥ 90 mg/mL
- solubility ([2]; aqueous with cosolvent or surfactant or cyclodextrin, thermodynamic from solid, 70% Propylene Glycol, read-out: Solubility): > 87.8 mg/mL
- solubility ([2]; ethanol and methanol): freely soluble
- solubility ([2]; organic solvent or mixture, thermodynamic from solid, Acetonitrile, read-out: Solubility): ~68 mg/mL
- solubility ([2]; organic solvent or mixture, thermodynamic from solid, Ethanol, read-out: Solubility): > 211 mg/mL
- solubility ([2]; organic solvent or mixture, thermodynamic from solid, Methanol, read-out: Solubility): > 109 mg/mL
- solubility ([2]; organic solvent or mixture, thermodynamic from solid, PEG-400 (100%), read-out: Solubility): ~36 mg/mL
- solubility ([2]; organic solvent or mixture, thermodynamic from solid, Propylene Glycol (100%), read-out: Solubility): > 92.1 mg/mL
- solubility ([2]; saline or isotonic, thermodynamic from solid, 0.9% NaCl, read-out: Solubility): > 206 mg/mL
- solubility ([2]; saline or isotonic, thermodynamic from solid, 5% Dextrose, read-out: Solubility): > 201 mg/mL
- solubility ([2]; saline or isotonic, thermodynamic from solid, IV solutions (0.9% saline and 5% dextrose), read-out: solubility): ≥ 200 mg/mL
- solubility ([2]; water, thermodynamic from solid, Water, read-out: Solubility): > 400 mg/mL
- solubility ([2]; water, thermodynamic from solid, water, IV solutions (0.9% saline and 5% dextrose), ethanol, methanol, 30%, 70% and 100% propylene glycol, read-out: solubility): > 90 mg/mL
